We go through three compounds from US20060167110A1 (priority 1995, published 2006).

Experiment [1] relates to cerebral infarction. The conditions noted are these: given orally; patients with subarachnoid hemorrhage and cerebral vasospasm; cited from earlier work.
Experiment [2] concerns rat embryonic mesencephalic cells. Kind of experiment: [3H]dopamine uptake, medium change (glutamate receptor dependent) model of cell death.
Description: Preparations are then added to 10 ml Ecoscint (National Diagnostics) and counted in a scintillation spectrometer.
(§3) In these experiments, cells were plated and allowed to stabilize for several days.
The target in experiment [3] is T1, dopamine uptake system (Rattus norvegicus, UniProt P23977).
T1 construct: An in vitro nerve-terminal preparation (symptosome-preparation) was obtained from fresh rat neostriatal brain tissue; from tissue; host or cells: rat neostriatal synaptosomes
Briefly: Inhibition of tritiated dopamine uptake in rat neostriatal nerve-terminal (synaptosome) preparation. In kind it is biochemical. The procedure: An in vitro nerve terminal preparation (synaptosome preparation) was prepared using fresh rat neostriatal tissue.
Transport by dopamine nerve-terminals was estimated by measuring the uptake of tritiated dopamine.

Experiment [4] addresses T2, MAO-B (Cavia porcellus, UniProt P58028).
T2 construct: MAO-B (^14C-phenylethylamine) by human platelets and guinea pig hippocampal homogenates; from tissue; host or cells: guinea pig hippocampal homogenates
T2 sequence (P58028 1-520): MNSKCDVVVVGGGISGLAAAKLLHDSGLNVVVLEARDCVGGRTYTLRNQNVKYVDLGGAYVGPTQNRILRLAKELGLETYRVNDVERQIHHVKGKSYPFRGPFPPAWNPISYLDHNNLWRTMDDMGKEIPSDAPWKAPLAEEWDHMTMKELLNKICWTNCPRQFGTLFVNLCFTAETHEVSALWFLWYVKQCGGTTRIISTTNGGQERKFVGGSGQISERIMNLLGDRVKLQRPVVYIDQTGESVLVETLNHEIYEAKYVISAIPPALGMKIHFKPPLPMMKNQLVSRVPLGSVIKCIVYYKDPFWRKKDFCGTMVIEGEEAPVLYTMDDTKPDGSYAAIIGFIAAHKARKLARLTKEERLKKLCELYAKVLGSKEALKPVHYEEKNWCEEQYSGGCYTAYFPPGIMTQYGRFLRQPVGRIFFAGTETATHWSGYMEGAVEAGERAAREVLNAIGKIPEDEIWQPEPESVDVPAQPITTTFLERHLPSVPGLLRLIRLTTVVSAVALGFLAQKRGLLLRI
Briefly: In vivo brain MAO-B inhibition in guinea pig hippocampus after 5 daily s.c. doses. The note with it: preliminary studies. The procedure:
FIG. 20: In vivo MAO-B Inhibition in Guinea Pig Hippocampus. […] Animals were then sacrificed and the MAO-B activity in the hippocampus portion of the brain was determined. […] The plots were used to estimate the ID50 dosage for each agent.
Each enantiomer of DMS was administered in vivo by subcutaneous injection once a day for five consecutive days, and inhibition of brain MAO-B activity was then determined.

Experiment [5] has as its system rat embryonic mesencephalic cells. Briefly: TH positive cell survival, medium change (glutamate receptor dependent) model of cell death.
Description: as §3
The target in experiment [6] is T3, MAO-A (Cavia porcellus, UniProt H0UVA2).
T3 sequence (H0UVA2 1-461): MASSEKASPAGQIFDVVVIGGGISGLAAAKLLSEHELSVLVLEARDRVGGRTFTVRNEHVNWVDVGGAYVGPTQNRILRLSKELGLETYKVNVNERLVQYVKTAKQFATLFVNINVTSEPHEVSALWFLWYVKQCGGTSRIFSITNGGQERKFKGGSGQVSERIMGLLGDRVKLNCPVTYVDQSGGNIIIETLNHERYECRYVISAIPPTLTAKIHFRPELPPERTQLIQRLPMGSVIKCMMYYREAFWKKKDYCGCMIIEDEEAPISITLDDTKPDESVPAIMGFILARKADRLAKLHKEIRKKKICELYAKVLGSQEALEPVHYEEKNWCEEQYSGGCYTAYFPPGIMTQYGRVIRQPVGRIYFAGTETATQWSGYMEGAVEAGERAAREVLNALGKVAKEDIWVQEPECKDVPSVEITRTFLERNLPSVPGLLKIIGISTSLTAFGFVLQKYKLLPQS
Briefly: MAO-A inhibition in guinea pig hippocampal homogenates in vitro. It is filed as biochemical. The arrangement: specific substrates of MAO-A (^14C-serotonin) in guinea pig hippocampal homogenates; from tissue; host or cells: guinea pig hippocampal homogenates. The conditions noted are these: for reduction in potency compared to selegiline, MAO-A: figure in parentheses, times less potent. From the text:
(§1) Human platelet MAO is comprised exclusively of the type-B isoform of the enzyme. […] The present study also examined the two enantiomers of DMS for inhibitory activity with respect to the MAO-A and MAO-B in guinea pig hippocampal tissue. Guinea pig brain tissue is an excellent animal model for studying brain dopamine metabolism, the enzyme kinetics of the multiple forms of MAO and the inhibitory properties of novel agents that interact with these enzymes. The multiple forms of MAO in this animal species show similar kinetic properties to those found in human brain tissue. Finally, the test agents were administered to guinea pigs and the extent to which they might act as inhibitors of brain MAO in vivo was assessed.
(§2) In vitro: The test system utilized the in vitro conversion of specific substrates of MAO-A (^14C-serotonin) in guinea pig hippocampal homogenates or MAO-B (^14C-phenylethylamine) by human platelets and guinea pig hippocampal homogenates. […] A percent inhibition was calculated from these values.

In experiment [7] the target is T2, MAO-B. Briefly: MAO-B inhibition in guinea pig hippocampal homogenates in vitro. In kind it is biochemical.
Source text: as §1, §2

Experiment [8] has as its system cultured rat mesencephalic cells. Kind of experiment: TH immunochemistry after 100 μM NMDA exposure.
Description: Rat mesencephalic cell cultures were exposed to 100 μM NMDA and incubated as described above in connection with FIG. 16.
Experiment [9] deals with T4, MAO-A (Rattus norvegicus, UniProt P21396).
T4 sequence (P21396 1-526): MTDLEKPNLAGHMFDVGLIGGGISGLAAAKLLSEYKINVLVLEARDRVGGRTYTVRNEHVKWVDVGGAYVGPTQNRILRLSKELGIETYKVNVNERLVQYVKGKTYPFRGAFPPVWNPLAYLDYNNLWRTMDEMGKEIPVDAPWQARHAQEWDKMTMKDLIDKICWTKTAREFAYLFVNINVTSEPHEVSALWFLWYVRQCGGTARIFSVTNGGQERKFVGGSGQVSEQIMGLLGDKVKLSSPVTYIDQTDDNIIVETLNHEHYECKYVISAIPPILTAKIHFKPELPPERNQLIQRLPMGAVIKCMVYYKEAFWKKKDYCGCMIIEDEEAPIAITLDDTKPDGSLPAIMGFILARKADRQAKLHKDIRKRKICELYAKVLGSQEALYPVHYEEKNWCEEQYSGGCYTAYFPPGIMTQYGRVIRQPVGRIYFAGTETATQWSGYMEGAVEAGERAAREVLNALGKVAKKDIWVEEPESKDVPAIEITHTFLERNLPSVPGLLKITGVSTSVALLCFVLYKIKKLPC
Briefly: Inhibition of MAO-A in rat cortex mitochondrial-rich fractions. The note with it: read-out: Percent Inhibition MAO-A.

Experiment [10] deals with T3, MAO-A. Kind of experiment: In vivo MAO-A inhibition in guinea pig cortex (hippocampus) after 5 s.c. treatments. The note with it: sc, read-out: inhibition of MAO-A activity.
Description: Hippocampal homogenates containing enzyme were prepared, and assays in vitro for MAO-A and MAO-B activity.

Each structure is given as a SMILES string. Where “and” joins values, the source holds several entries; their conditions need not be identical. Equal values may be shown once.

T1 sequence (P23977 whole entry): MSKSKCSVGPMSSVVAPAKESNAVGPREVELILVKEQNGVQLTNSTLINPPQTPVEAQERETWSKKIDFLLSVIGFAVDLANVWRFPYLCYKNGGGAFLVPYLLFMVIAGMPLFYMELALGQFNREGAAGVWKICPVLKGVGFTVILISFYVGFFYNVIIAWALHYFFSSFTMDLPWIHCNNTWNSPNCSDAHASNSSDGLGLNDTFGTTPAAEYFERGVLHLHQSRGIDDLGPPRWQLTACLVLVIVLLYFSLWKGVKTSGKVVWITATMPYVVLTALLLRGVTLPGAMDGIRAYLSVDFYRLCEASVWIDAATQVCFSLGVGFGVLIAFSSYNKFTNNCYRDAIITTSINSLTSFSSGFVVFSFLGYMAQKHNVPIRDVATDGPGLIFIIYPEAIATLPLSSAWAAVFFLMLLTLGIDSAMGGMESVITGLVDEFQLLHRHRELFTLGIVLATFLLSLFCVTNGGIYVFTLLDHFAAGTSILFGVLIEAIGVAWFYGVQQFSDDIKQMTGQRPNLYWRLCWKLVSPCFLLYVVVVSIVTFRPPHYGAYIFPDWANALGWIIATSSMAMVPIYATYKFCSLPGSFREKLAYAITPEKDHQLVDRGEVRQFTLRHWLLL

In the case of `COCCOC(=O)C1=C(C)NC(C)=C(C(=O)OC(C)C)C1c1cccc([N+](=O)[O-])c1` (stereo not drawn) [Nimodipine], the “incidence of cerebral infarction” value in [1] is given as “lower by one third”.

In the case of `C#CCNC(C)Cc1ccccc1` (single isomer, unassigned) [S(+)DMS, S(+)-desmethylselegiline], the “Dopamine uptake, % control” value was 167.2 % control in experiment [2] (0.5 μM, Mean); 170.6 % control and 152.8 % control and 157.4 % control and 188.2 % control in experiment [2] (0.5 μM, single sample); 180.5 % control in experiment [2] (5.0 μM, Mean); 171.3 % control and 173.7 % control and 181.7 % control and 195.1 % control in [2] (5.0 μM, single sample); 157.3 % control in experiment [2] (50 μM, Mean); 123.8 % control and 177.7 % control and 146.3 % control and 181.1 % control in experiment [2] (50 μM, single sample). Besides, the “Dopamine uptake, counts/min” value was 35115.5 counts/min in experiment [2] (0.5 μM, Mean); 35830 counts/min and 32074 counts/min and 33042 counts/min and 39516 counts/min in experiment [2] (0.5 μM, single sample); 37889.75 counts/min in experiment [2] (5.0 μM, Mean); 35976 counts/min and 36476 counts/min and 38143 counts/min and 40964 counts/min in experiment [2] (5.0 μM, single sample); 33016.75 counts/min in experiment [2] (50 μM, Mean); 26002 counts/min and 37320 counts/min and 30725 counts/min and 38020 counts/min in experiment [2] (50 μM, single sample). For the same compound, the “times more potent than either selegiline or R(−)DMS in inhibiting dopamine uptake” value in experiment [3] is listed as 4-5 times. Also, in experiment [4], the “times less potent than selegiline, brain MAO-B in vivo” value is given as “about 10 times”. The “TH positive cells, % control” value in experiment [5] (0.5 μM, Mean) is 143.5 % control; in [5] (0.5 μM, single sample) it was 152.7 % control and 125.2 % control; in experiment [5] (5.0 μM, Mean), 130.6 % control; in [5] (5.0 μM, single sample), 129.9 % control and 135.6 % control and 123.3 % control and 133.7 % control; in experiment [5] (50 μM, Mean), 109.8 % control; in experiment [5] (50 μM, single sample), 116.6 % control and 94.8 % control and 118.5 % control and 109.1 % control. Further, the “TH positive cells, % control” value in [8] (0.5 μM, Mean) is 182.3 % control; in experiment [8] (0.5 μM, single sample), 135.4 % control and 223.0 % control and 188.5 % control; in [8] (5.0 μM, Mean) it was 197.8 % control; in [8] (5.0 μM, single sample), 204.4 % control and 199.1 % control and 183.2 % control; in [8] (50 μM, Mean) it was 276.1 % control; in experiment [8] (50 μM, single sample), 315.9 % control and 215.0 % control and 337.2 % control and 236.3 % control. Moreover, the “TH positive cells, cells/cm^2” value in [5] (0.5 μM, Mean) is 403.1 cells/cm^2; in [5] (0.5 μM, single sample), 402.5 cells/cm^2 and 330.0 cells/cm^2 and 477.5 cells/cm^2; in experiment [5] (5.0 μM, Mean), 344.4 cells/cm^2; in experiment [5] (5.0 μM, single sample), 342.5 cells/cm^2 and 357.5 cells/cm^2 and 325.0 cells/cm^2 and 352.5 cells/cm^2; in [5] (50 μM, Mean) it was 289.4 cells/cm^2; in [5] (50 μM, single sample) it was 307.5 cells/cm^2 and 250.0 cells/cm^2 and 312.5 cells/cm^2 and 287.5 cells/cm^2. The “TH positive cells, cells/cm^2” value in experiment [8] (0.5 μM, Mean) was 171.67 cells/cm^2; in experiment [8] (0.5 μM, single sample) it was 127.5 cells/cm^2 and 210 cells/cm^2 and 177.5 cells/cm^2; in experiment [8] (5.0 μM, Mean), 186.25 cells/cm^2; in [8] (5.0 μM, single sample), 192.5 cells/cm^2 and 187.5 cells/cm^2 and 172.5 cells/cm^2; in experiment [8] (50 μM, Mean), 260 cells/cm^2; in experiment [8] (50 μM, single sample), 297.5 cells/cm^2 and 202.5 cells/cm^2 and 317.5 cells/cm^2 and 222.5 cells/cm^2. Further, the “MAO-A % Reduction 0 ± SEM” value was 92.7 ± 2.5% in experiment [6] (Concentration 1 nM); 99.6 ± 0.35% in experiment [6] (Concentration 10 nM); 3.3 + 1.5% in [6] (Concentration 1 μM); 4.3 ± 1.0% in experiment [6] (Concentration 3 μM); 10.5 ± 1.47% in [6] (Concentration 10 μM); 48.4 ± 1.8% in experiment [6] (Concentration 100 μM). Also, the “reduction in potency compared to selegiline, MAO-A” value in experiment [6] stood at 40. For the same compound, half-maximal inhibition in experiment [7] (IC50 Values for the Inhibition of MAO-B, Guinea Pig Hippocampal Cortex) (IC50) required 1200 nM. Further, the “reduction in potency compared to selegiline, MAO-B, Guinea Pig Hippocampal Cortex” value in [7] (figure in parentheses) was 1200 nM (1200). Besides, the inhibition at 0.3 µM in experiment [7] (read-out: MAO-B % Inhibition 0 ± SEM, Concentration 300 nM) amounted to 18.7 ± 2.1%. Further, the inhibition at 3 µM in experiment [7] (read-out: MAO-B % Inhibition 0 ± SEM, Concentration 3 μM) turned out to be 77.1 ± 6%.

In the case of `C#CCN(C)[C@H](C)Cc1ccccc1` [Selegiline, (R)-N-α-dimethyl-N-2-propynylbenzeethanamine, reference compound], the inhibition at 0.03 µM in experiment [9] is 0%. Further, in [2] (50 μM), the “neuron protection by measurement of dopamine uptake (FIG. 15)” value is on record as “neuron protection”. In addition, the “TH positive cells, cells/cm^2” value worked out at 344.2 cells/cm^2 in experiment [5] (50 μM, Mean, listed as Deprenyl) and 230 cells/cm^2 in experiment [8] (50 μM, single sample, listed as Deprenyl). In [5] (0.5, 5.0 or 50 μM, 4 days of daily medium changes), the “survival of dopaminergic neurons (TH staining and tritiated dopamine uptake, FIGS. 11 and 12)” value is on record as “promotes the survival of dopaminergic neurons”. Moreover, the entries for the “MAO-A % Reduction 0 ± SEM” value in experiment [6] (Concentration 300 nM), in experiment [6] (Concentration 1 μM) and in experiment [6] (Concentration 3 μM) were 11.95 ± 2.4%, 22.1 ± 1.2% and 53.5 ± 2.7%, respectively. Moreover, the “reduction in potency compared to selegiline, MAO-A” value in [6] amounted to 1. In [10], the inhibition at 1 mg/kg worked out at 36.1%.
